Calls of active or inactive are those of the source. The calls are words filed in the database; no cut-off is given here.
Columns and labels:
[1] = test system: Human alphaherpesvirus 1; assay: Antiviral activity against Herpes simplex virus type 1 infected in Vero cells at 0.01 ID50/cells assessed as protection against virus-induced cytopathic effect after 3 days by neutral red dye method; assay type: functional, organism-based; conditions: Human alphaherpesvirus 1, Vero, 72 h
[2] = Cytotoxicity against african green monkey Vero cells after 3 days by neutral red dye method; assay type: cell-based; conditions: chlorocebus sabaeus
[3] = test system: Human alphaherpesvirus 1; assay: Antiviral activity against Herpes simplex virus type 1 infected in Vero cells at 0.001 ID50/cells assessed as protection against virus-induced cytopathic effect after 3 days by neutral red dye method; assay type: functional, organism-based; conditions: Human alphaherpesvirus 1, Vero, 72 h
[4] = test system: Human alphaherpesvirus 1; assay: Antiviral activity against Herpes simplex virus type 1 infected in Vero cells at 0.001 ID50/cells assessed as change in cell morphology after 3 days by neutral red dye method; assay type: functional, organism-based
[5] = test system: Human alphaherpesvirus 1; assay: Antiviral activity against Herpes simplex virus type 1 infected in Vero cells at 0.001 ID50/cells assessed as protection against virus-induced cytopathic effect at 200 ug/ml after 3 days by neutral red dye method relative to control; assay type: functional
[6] = test system: Human alphaherpesvirus 1; assay: Ratio of acyclovir EC50 to compound EC50 for Herpes simplex virus type 1; assay type: functional
[7] = test system: Human alphaherpesvirus 1; assay: Antiviral activity against Herpes simplex virus type 1 infected in Vero cells at 0.001 ID50/cells assessed as destruction of cell layer after 3 days by neutral red dye method; assay type: functional, organism-based

| Structure (SMILES) | EC50 [1] [µM] | CC50 at 72 h [2] [µM] | EC50 [3] [µM] | Activity [4] | Activity [5] [%] | ratio [6] | Activity [7] |
| --- | --- | --- | --- | --- | --- | --- | --- |
| CC(=O)OC[C@H]1O[C@@H](n2cc(-c3ccccc3)c(O)cc2=O)[C@H](OC(C)=O)[C@@H]1OC(C)=O | > 100 | > 200 |  |  |  |  |  |
| CC(=O)OC[C@H]1O[C@@H](n2ccc(O)c(-c3ccc(S(C)(=O)=O)cc3)c2=O)[C@H](OC(C)=O)[C@@H]1OC(C)=O | > 100 | > 200 |  |  |  |  |  |
| COc1ccc(-c2c(O)ccn([C@@H]3O[C@H](CO)[C@@H](O)[C@H]3O)c2=O)cc1 | > 100 | > 400 | 20 | Active | 82 | 3.8 | Active |
| COc1ccc(-c2c(O)ccn([C@@H]3O[C@H](COC(C)=O)[C@@H](OC(C)=O)[C@H]3OC(C)=O)c2=O)cc1 | > 100 | > 200 | 10.5 | Active | 85 | 7.2 | Active |
| CC(=O)OC[C@H]1O[C@@H](n2ccc(O)c(-c3ccccc3)c2=O)[C@H](OC(C)=O)[C@@H]1OC(C)=O |  | > 400 | > 100 | Active |  |  | Active |
| O=c1c(-c2ccc(C3CCCCC3)cc2)c(O)ccn1[C@@H]1O[C@H](CO)[C@@H](O)[C@H]1O | > 100 | > 200 |  |  |  |  |  |
| CCOc1ccc(-c2c(O)ccn([C@@H]3O[C@H](CO)[C@@H](O)[C@H]3O)c2=O)cc1 | > 100 | > 200 |  |  |  |  |  |
| COc1ccc(-c2cn([C@@H]3O[C@H](CO)[C@@H](O)[C@H]3O)c(=O)cc2O)cc1 | > 100 | > 200 |  |  |  |  |  |
| CC(=O)OC[C@H]1O[C@@H](n2ccc(O)c(-c3ccc4c(c3)OCO4)c2=O)[C@H](OC(C)=O)[C@@H]1OC(C)=O |  | > 400 | > 100 | Active |  |  | Active |
| CC(=O)OC[C@H]1O[C@@H](n2ccc(O)c(-c3ccc(C)cc3)c2=O)[C@H](OC(C)=O)[C@@H]1OC(C)=O |  | > 400 | > 100 | Active |  |  | Active |
| Cc1ccc(-c2c(O)ccn([C@@H]3O[C@H](CO)[C@@H](O)[C@H]3O)c2=O)cc1 |  | > 400 | > 100 | Active |  |  | Active |
| CC(=O)OC[C@H]1O[C@@H](n2ccc(O)c(-c3ccc(OC(F)(F)F)cc3)c2=O)[C@H](OC(C)=O)[C@@H]1OC(C)=O | > 100 | > 200 |  |  |  |  |  |
| CC(=O)OC[C@H]1O[C@@H](n2ccc(O)c(CCc3ccccc3)c2=O)[C@H](OC(C)=O)[C@@H]1OC(C)=O |  | > 400 | > 100 | Active |  |  | Active |
| COc1c(C)cc(-c2c(O)ccn([C@@H]3O[C@H](CO)[C@@H](O)[C@H]3O)c2=O)cc1C | > 100 | > 200 |  |  |  |  |  |
| COc1cc(-c2c(O)ccn([C@@H]3O[C@H](COC(C)=O)[C@@H](OC(C)=O)[C@H]3OC(C)=O)c2=O)cc(OC)c1OC | > 100 | > 200 |  |  |  |  |  |
| CC(=O)OC[C@H]1O[C@@H](n2c(=O)cc(O)c3ccccc32)[C@H](OC(C)=O)[C@@H]1OC(C)=O | > 100 | > 200 |  |  |  |  |  |
| O=c1cc(O)c(-c2ccccc2)cn1[C@@H]1O[C@H](CO)[C@@H](O)[C@H]1O | > 100 | > 200 |  |  |  |  |  |
| COc1c(C)cc(-c2c(O)ccn([C@@H]3O[C@H](COC(C)=O)[C@@H](OC(C)=O)[C@H]3OC(C)=O)c2=O)cc1C | > 100 | > 200 |  |  |  |  |  |

| Structure (SMILES) | EC50 [1] [µM] | CC50 at 72 h [2] [µM] | EC50 [3] [µM] | Activity [4] | Activity [5] [%] | ratio [6] | Activity [7] |
| --- | --- | --- | --- | --- | --- | --- | --- |
| CC(C)(C)c1ccc(-c2c(O)ccn([C@@H]3O[C@H](CO)[C@@H](O)[C@H]3O)c2=O)cc1 | > 100 | > 200 |  |  |  |  |  |
| O=c1c(-c2ccc3c(c2)OCO3)c(O)ccn1[C@@H]1O[C@H](CO)[C@@H](O)[C@H]1O |  | > 400 | > 100 | Active |  |  | Active |
| CC(=O)OC[C@H]1O[C@@H](n2ccc(O)c(-c3ccc(C(C)(C)C)cc3)c2=O)[C@H](OC(C)=O)[C@@H]1OC(C)=O | > 100 | > 200 |  |  |  |  |  |
| O=c1c(CCc2ccccc2)c(O)ccn1[C@@H]1O[C@H](CO)[C@@H](O)[C@H]1O |  | > 400 | > 100 | Active |  |  | Active |
| CCOc1ccc(-c2c(O)c(-c3ccccc3)cn([C@@H]3O[C@H](COC(C)=O)[C@@H](OC(C)=O)[C@H]3OC(C)=O)c2=O)cc1 | > 100 | > 200 |  |  |  |  |  |
| CCOc1ccc(-c2c(O)c(-c3ccccc3)cn([C@@H]3O[C@H](CO)[C@@H](O)[C@H]3O)c2=O)cc1 | > 100 | > 200 |  |  |  |  |  |
| CC(=O)OC[C@H]1O[C@@H](n2ccc(O)c(-c3ccc(-c4ccccc4)cc3)c2=O)[C@H](OC(C)=O)[C@@H]1OC(C)=O | 33 | > 200 |  |  |  | 67 |  |
| O=c1c(-c2ccccc2)c(O)ccn1[C@@H]1O[C@H](CO)[C@@H](O)[C@H]1O |  | > 400 | > 100 | Active |  |  | Active |
| CCOc1ccc(-c2c(O)ccn([C@@H]3O[C@H](COC(C)=O)[C@@H](OC(C)=O)[C@H]3OC(C)=O)c2=O)cc1 | > 100 | > 200 |  |  |  |  |  |
| O=c1cc(O)c2ccccc2n1[C@@H]1O[C@H](CO)[C@@H](O)[C@H]1O | > 100 | > 200 |  |  |  |  |  |
| COc1cc(-c2c(O)ccn([C@@H]3O[C@H](CO)[C@@H](O)[C@H]3O)c2=O)cc(OC)c1OC | > 100 | > 200 |  |  |  |  |  |
| Nc1nc2c(ncn2COCCO)c(=O)[nH]1 [ACYCLOVIR] | 22 | > 200 | 0.76 |  |  |  |  |
| COc1ccc(-c2cn([C@@H]3O[C@H](COC(C)=O)[C@@H](OC(C)=O)[C@H]3OC(C)=O)c(=O)cc2O)cc1 | > 100 | > 200 |  |  |  |  |  |
| COc1ccc(-c2c(O)ccn([C@@H]3O[C@H](CO)[C@@H](O)[C@H]3O)c2=O)cc1OC |  | > 400 | > 100 | Active |  |  | Active |
| CC(=O)OC[C@H]1O[C@@H](n2ccc(O)c(-c3ccc(C4CCCCC4)cc3)c2=O)[C@H](OC(C)=O)[C@@H]1OC(C)=O | 49 | > 200 |  |  |  | 45 |  |
| O=c1c(-c2ccc(-c3ccccc3)cc2)c(O)ccn1[C@@H]1O[C@H](CO)[C@@H](O)[C@H]1O | > 100 | > 200 |  |  |  |  |  |
| COc1ccc(-c2c(O)ccn([C@@H]3O[C@H](COC(C)=O)[C@@H](OC(C)=O)[C@H]3OC(C)=O)c2=O)cc1OC | > 100 | > 200 | 36.6 | Active | 75 | 2.1 | Active |
